Data as given in paper PMC8213057, “Targeting ALK2: An Open Science Approach to Developing Therapeutics for the Treatment of Diffuse Intrinsic Pontine Glioma” (Journal of Medicinal Chemistry, 2020).

Assays:
[1] = target: T1, CDK9/cyclin K (Homo sapiens, UniProt P50750); assay: 375-member kinase panel; assay type: biochemical; conditions: Run 1, Run 2; for % enzyme activity: 1 μM; for remaining activity at 1 µM: read-out: % enzyme activity, 1 μM
T1 construct: purchased Reaction Biology Corporation
T1 sequence (P50750 whole entry): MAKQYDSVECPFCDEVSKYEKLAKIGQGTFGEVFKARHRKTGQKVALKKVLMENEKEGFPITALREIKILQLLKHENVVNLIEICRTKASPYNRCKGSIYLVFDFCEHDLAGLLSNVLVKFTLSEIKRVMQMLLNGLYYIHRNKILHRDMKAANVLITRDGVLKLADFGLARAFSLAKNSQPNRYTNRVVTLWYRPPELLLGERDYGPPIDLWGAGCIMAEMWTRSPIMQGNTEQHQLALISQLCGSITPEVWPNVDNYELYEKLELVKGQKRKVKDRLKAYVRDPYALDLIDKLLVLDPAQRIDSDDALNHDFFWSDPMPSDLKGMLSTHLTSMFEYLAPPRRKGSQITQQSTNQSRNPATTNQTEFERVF
T1 sequence (O75909 whole entry partner): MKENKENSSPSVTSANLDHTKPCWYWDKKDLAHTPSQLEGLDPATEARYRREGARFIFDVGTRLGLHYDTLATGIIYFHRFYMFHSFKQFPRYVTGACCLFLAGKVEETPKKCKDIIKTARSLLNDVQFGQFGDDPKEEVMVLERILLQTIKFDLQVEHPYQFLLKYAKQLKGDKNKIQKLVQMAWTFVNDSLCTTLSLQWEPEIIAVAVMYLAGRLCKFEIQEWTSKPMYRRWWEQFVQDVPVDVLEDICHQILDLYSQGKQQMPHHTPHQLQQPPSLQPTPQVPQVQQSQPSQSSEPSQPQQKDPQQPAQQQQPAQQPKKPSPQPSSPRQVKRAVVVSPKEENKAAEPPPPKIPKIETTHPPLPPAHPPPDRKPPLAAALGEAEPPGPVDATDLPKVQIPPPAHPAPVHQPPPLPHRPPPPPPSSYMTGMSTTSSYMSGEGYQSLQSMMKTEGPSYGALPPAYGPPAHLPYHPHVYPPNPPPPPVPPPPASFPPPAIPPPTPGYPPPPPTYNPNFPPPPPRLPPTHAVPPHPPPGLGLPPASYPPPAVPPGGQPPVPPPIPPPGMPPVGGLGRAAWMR

[2] = target: T2, Aurora C (Homo sapiens, UniProt Q9UQB9); conditions: 1 μM; Run 1, Run 2
T2 sequence (Q9UQB9 1-309): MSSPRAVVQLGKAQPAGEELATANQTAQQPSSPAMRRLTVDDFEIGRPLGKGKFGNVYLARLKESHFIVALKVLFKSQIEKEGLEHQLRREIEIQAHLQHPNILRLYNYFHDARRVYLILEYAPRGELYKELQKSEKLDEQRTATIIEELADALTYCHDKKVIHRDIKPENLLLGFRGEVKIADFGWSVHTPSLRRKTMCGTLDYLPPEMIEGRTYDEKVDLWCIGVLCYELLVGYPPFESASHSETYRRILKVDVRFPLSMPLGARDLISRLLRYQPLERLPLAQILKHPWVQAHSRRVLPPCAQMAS

[3] = target: T3, KSR1 (Homo sapiens, UniProt Q8IVT5); conditions: 1 μM; Run 1, Run 2
T3 sequence (Q8IVT5 1-923): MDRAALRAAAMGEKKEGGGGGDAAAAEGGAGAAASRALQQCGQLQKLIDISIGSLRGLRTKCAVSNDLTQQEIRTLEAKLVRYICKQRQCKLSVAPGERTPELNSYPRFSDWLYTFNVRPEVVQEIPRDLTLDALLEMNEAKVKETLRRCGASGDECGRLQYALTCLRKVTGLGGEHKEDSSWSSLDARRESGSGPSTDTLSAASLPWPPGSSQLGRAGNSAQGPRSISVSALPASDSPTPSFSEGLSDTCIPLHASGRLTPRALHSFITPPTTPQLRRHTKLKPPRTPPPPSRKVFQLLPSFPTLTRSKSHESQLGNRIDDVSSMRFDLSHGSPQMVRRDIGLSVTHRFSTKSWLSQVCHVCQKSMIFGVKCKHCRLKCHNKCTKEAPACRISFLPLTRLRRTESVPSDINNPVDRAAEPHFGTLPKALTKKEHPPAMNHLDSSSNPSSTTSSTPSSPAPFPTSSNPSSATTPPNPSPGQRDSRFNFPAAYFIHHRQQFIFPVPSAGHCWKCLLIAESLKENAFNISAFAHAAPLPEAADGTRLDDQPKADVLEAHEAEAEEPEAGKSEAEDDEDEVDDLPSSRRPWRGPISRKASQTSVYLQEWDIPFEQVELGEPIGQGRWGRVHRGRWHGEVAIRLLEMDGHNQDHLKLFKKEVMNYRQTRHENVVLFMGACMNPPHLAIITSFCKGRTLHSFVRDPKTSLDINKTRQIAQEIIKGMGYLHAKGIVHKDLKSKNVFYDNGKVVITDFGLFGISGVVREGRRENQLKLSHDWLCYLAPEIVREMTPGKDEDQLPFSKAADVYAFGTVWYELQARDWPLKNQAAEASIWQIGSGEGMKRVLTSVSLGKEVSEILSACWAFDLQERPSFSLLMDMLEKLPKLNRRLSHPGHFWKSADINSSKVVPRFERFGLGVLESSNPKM

[4] = target: T4, MUSK (Homo sapiens, UniProt O15146); conditions: 1 μM; Run 1, Run 2
T4 sequence (O15146 24-869): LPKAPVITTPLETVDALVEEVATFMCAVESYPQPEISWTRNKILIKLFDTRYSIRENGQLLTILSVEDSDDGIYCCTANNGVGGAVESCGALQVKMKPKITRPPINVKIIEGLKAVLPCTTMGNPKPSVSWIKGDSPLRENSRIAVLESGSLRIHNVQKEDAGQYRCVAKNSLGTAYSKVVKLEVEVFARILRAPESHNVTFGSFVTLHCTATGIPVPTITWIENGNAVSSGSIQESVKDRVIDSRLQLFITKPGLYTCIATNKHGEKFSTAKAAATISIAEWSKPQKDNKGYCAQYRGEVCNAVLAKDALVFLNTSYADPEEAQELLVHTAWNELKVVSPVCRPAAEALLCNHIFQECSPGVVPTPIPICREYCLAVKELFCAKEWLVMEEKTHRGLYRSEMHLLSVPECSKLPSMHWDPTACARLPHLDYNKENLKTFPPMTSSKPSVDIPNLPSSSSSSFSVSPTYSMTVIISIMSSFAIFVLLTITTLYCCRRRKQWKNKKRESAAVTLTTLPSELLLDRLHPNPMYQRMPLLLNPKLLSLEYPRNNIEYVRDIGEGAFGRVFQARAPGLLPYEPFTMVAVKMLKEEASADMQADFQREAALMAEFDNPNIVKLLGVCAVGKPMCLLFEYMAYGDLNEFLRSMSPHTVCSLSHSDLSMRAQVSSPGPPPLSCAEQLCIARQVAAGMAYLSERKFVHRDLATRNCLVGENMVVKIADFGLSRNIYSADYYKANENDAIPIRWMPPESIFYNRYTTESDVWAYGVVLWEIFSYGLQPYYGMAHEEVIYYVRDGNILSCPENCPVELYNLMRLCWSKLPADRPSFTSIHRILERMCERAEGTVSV

[5] = target: T5, Aurora A (Homo sapiens, UniProt O14965); assay: biochemical; conditions: read-out: % enzyme activity, 1 μM; Run 1, Run 2
T5 sequence (O14965 1-403): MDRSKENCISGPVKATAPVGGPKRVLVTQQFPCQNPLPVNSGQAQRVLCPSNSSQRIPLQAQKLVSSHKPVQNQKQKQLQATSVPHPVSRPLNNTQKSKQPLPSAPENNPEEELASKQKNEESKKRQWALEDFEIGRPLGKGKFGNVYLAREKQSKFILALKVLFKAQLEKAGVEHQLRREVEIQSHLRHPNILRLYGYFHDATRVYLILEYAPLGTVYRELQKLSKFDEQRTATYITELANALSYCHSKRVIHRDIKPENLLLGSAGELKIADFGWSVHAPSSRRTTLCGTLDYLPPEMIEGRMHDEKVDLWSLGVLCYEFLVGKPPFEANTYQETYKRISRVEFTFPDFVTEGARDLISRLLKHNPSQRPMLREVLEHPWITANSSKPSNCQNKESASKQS

[6] = target: DAPK1 (Homo sapiens, UniProt P53355); assay: biochemical; conditions: read-out: % enzyme activity, 1 μM; Run 1, Run 2
DAPK1, sequence (P53355 whole entry): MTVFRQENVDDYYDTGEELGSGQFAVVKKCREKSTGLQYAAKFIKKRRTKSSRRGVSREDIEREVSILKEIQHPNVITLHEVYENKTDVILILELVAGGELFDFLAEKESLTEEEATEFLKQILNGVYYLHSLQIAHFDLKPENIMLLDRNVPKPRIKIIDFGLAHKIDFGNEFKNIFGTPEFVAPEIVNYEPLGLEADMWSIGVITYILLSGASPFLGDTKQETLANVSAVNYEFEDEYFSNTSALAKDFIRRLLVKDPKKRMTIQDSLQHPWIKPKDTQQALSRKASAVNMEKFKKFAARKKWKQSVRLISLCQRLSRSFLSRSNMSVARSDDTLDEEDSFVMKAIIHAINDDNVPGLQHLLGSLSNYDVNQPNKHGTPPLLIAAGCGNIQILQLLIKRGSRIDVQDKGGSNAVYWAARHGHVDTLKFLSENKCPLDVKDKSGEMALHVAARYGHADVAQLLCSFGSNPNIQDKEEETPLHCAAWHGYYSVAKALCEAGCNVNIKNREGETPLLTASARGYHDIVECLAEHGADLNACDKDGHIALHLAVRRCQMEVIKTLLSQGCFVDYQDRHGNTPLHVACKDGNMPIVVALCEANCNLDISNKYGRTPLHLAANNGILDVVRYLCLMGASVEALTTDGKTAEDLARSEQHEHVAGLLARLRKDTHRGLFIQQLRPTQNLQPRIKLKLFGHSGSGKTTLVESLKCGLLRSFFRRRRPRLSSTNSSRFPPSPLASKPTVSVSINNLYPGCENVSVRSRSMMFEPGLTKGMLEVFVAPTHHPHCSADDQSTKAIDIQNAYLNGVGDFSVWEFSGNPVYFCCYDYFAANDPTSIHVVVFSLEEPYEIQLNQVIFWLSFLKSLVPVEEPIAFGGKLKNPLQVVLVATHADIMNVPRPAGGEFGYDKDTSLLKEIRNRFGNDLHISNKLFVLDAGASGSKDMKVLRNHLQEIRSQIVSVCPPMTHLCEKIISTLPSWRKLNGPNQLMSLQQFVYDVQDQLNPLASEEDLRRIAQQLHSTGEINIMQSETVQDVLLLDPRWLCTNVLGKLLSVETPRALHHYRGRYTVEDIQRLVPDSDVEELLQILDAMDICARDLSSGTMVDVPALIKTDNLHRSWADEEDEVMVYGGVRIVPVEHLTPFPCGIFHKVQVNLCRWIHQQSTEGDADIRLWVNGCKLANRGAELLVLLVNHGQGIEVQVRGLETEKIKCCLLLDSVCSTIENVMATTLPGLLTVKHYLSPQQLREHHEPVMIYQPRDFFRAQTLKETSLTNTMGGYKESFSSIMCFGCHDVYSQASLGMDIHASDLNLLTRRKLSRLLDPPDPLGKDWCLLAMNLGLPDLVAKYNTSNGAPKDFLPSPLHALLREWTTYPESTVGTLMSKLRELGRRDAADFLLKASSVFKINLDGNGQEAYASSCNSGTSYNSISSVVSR

[7] = target: GRK6 (Homo sapiens, UniProt P43250); assay: biochemical; conditions: read-out: % enzyme activity, 1 μM; Run 1, Run 2
GRK6, sequence (P43250 whole entry): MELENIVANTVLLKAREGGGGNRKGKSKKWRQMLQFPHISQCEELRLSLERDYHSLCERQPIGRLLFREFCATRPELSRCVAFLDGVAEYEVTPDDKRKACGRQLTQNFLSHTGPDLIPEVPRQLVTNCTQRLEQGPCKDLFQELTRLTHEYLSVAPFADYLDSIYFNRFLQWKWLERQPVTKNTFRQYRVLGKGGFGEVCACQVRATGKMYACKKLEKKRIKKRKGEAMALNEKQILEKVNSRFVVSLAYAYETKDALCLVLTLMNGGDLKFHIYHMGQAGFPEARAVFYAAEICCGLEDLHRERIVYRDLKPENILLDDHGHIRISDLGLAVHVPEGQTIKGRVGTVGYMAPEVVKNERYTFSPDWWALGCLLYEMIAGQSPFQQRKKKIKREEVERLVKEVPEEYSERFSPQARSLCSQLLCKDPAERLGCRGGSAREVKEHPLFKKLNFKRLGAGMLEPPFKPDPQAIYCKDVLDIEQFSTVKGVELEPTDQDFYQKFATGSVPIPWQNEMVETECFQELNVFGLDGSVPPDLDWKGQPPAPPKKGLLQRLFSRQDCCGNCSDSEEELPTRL

Row | Structure (SMILES) | % enzyme activity [1] [%] | remaining activity at 1 µM [1] [%] | % enzyme activity [2] [%] | % enzyme activity [3] [%] | % enzyme activity [4] [%] | remaining activity at 1 µM [5] [%] | remaining activity at 1 µM [6] [%] | remaining activity at 1 µM [7] [%]
1 | COc1cc(-c2cncc(-c3ccc(N4CCN(C)CC4)cc3)c2C)cc(F)c1C(N)=O [Compound 26a, 2-Fluoro-6-methoxy-4-(4-methyl-5-(4-(4-methylpiperazin-1-yl)phenyl)pyridin-3-yl)benzamide] | 96.95 | 97.5 | 103.00 | 93.83 | 91.48 | 101 | 95.7 | 109
2 | COc1cc(-c2cncc(-c3ccc(N4C[C@@H](C)N(C)[C@@H](C)C4)cc3)c2C)cc(F)c1C(N)=O [Compound 26c, 2-Fluoro-6-methoxy-4-(4-methyl-5-(4-((3R,5S)-3,4,5-trimethylpiperazin-1-yl)phenyl)pyridin-3-yl)benzamide] | 102.30 | 106 | 99.34 | 95.91 | 90.22 | 102 | 98.8 | 97.1
